Experimental data reported in a melting point compilation (Tetko et al.; mined from patent text by program, amines drawn as free bases though some values may be those of a salt).

First: COc1cc(Cl)c([N+](=O)[O-])cc1C(=O)NCCC(=O)O
Second: COc1ccc(Cl)cc1C(=O)NCCc1ccc(CCCCCCCC(=O)O)cc1
The melting point of the first is higher: 170 to 172 °C for the first, 103 to 106 °C for the second.

First: CSc1ccc2[nH]c(C(=O)O)cc(=O)c2c1
Second: CC1CCc2c(C#N)ccc3c(=O)c(C(=O)O)cn1c23 (stereo unspecified)
The melting point of the first is lower: 256 to 257 °C for the first, 300 °C for the second.

Compared with `CCOC(=O)C1=C(C)Nc2snc(CCCOCc3ccccc3)c2C1c1cccc([N+](=O)[O-])c1` (stereo unspecified), `CCOC1=CC=CC(C=O)C1(OCc1ccccc1)[N+](=O)[O-]` (stereo unspecified) is higher in melting point: 109 to 110 °C for the first, 110 to 111 °C for the second.

Compared with `O=C(O)C=C(c1cccc(Cl)c1)c1cccc(Cl)c1`, `CC(Oc1cc(Cl)ccc1Cl)C(=O)OCc1ccccc1` (stereo unspecified) is lower in melting point: 114 to 115 °C for the first, 56 to 58 °C for the second.

Compared with `Cc1oc(-c2ccccc2)nc1COc1cc(COc2ncccc2C=O)on1`, `Cc1nn(-c2ccccn2)c2ncc(C(=O)c3ccccc3)c(Cl)c12` is higher in melting point: 90 to 91 °C for the first, 177 to 178 °C for the second.

First: Cc1nc(-c2ccc(C(F)(F)F)cc2)sc1C(C)(C)Oc1cccc(COC(C)(C)C(=O)O)c1
Second: CC(=O)NCC(C)(C)c1ccc2nc(-c3ccc(C)cc3)[nH]c2c1
The melting point of the first is lower: 136 °C for the first, 230 to 232 °C for the second.

First: O=C(O)c1ccc(C#Cc2ccc(O)c(C34CC5CC(CC(C5)C3)C4)c2)cc1
Second: CC(=O)SCc1ccc(C#Cc2ccc(C=O)cc2)cc1
The melting point of the first is higher: 254 to 255 °C for the first, 128 to 129 °C for the second.

First: CNc1nc(-c2cccc(NC(=O)Nc3ccccc3)c2)c2cc(OC)c(OC)cc2n1
Second: CNc1nc(-c2cccc(Br)c2)c2cc(OC)c(OC)cc2n1
The melting point of the first is lower: 218 to 220 °C for the first, 246 to 248 °C for the second.

Compared with `COC1OC(CO)C(O)C(OC)C1O` (stereo unspecified), `OCC1OC(n2cnc3c(SCc4ccc5nc[nH]c5c4)ncnc32)C(O)C1O` (stereo unspecified) is higher in melting point: 56 to 58 °C for the first, 196 to 198 °C for the second.

Compared with `COc1ccc(-c2nc3cc(F)ccc3s2)cc1OC(=O)c1ccccc1Cl`, `Cc1cc(-c2cc(C(F)(F)F)nc(-c3ccnc(-c4cccc(S(N)(=O)=O)c4)c3)n2)ccc1Cl` is higher in melting point: 190 °C for the first, 234 °C for the second.

Compared with `CCC(=O)SCC(CC(=O)c1ccccc1)C(=O)O` (stereo unspecified), `O=C(O)CP(=O)(O)CCCc1ccccc1` is higher in melting point: 76 to 78 °C for the first, 118 to 119 °C for the second.

First: CCCN(CCC)C(=O)COc1nc(-c2ccccc2)nc(C)c1Cl
Second: CCOC(=O)c1c(Cl)nc2ccc(OC)cc2c1CCl
The melting point of the first is lower: 90 to 91 °C for the first, 215 to 219 °C for the second.

Compared with `O=P(O)(O)C(O)(Cc1cccc(Cl)c1)P(=O)(O)O`, `CCc1cc(CC(=O)O)n(C)c1C(=O)c1ccc(Cl)cc1` is lower in melting point: 198 to 200 °C for the first, 129 to 131 °C for the second.

First: O=C(O)[C@@H]1C[C@@H](C(=O)O)N(C(=O)OCc2ccccc2)C1
Second: CN[C@H](Cc1ccc2ccccc2c1)C(=O)N1CCN(S(C)(=O)=O)C[C@H]1Cc1ccccc1
The melting point of the first is lower: 98 to 100 °C for the first, 165 to 168 °C for the second.

First: Cc1nc(O)c(C)c(NCCc2ccncc2)n1
Second: O=[N+]([O-])c1ccc(NCCc2c[nH]cn2)nc1
The melting point of the first is higher: 250 to 252 °C for the first, 162 to 163 °C for the second.

First: N#CCOC(=O)c1ccc(C(c2ccccc2)c2ccccc2)cn1
Second: O=c1oc2c3c(n(-c4ccccc4)c(=O)c2c(O)c1Sc1ccccc1)-c1ccccc1C3
The melting point of the first is lower: 95 to 98 °C for the first, 274 to 275 °C for the second.

Compared with `Clc1c(I)c(Cl)c(I)c(Cl)c1I`, `Cc1onc(-c2c(F)cccc2Cl)c1C(=O)CBr` is lower in melting point: > 300 °C for the first, 74 to 75 °C for the second.

Compared with `O=C(O)CCc1oc(-n2ncc3ccccc32)nc1-c1ccc(Cl)cc1`, `O=C1c2ccccc2C(=O)N1Cc1ccc(Cl)nc1` is lower in melting point: 204 to 205 °C for the first, 142 to 143 °C for the second.

Compared with `CCc1ccccc1OC(CC)C(=O)OC1CC(O)C=C2C=CC(C)C(CCC3CC(O)CC(=O)O3)C21` (mixture of isomers), `CCOC(=O)c1ccc(C(C(N)=O)C(C)c2cc(OC)ccc2N2CCCCC2)cc1` (stereo unspecified) is higher in melting point: 108 to 110 °C for the first, 131 to 132 °C for the second.

First: CCCOc1c(OC)cc([C@H]2CC[C@H](c3cc(OC)c(OC)c(OC)c3)O2)cc1S(C)(=O)=O (relative stereo)
Second: COc1cc(CN2CCN(c3ccccc3C)CC2)cc(OC)c1OC
The melting point of the first is higher: 95 to 96 °C for the first, 89 °C for the second.

`NCC(=O)N(N)c1ccc2ccccc2c1` and `NCC1C[N+]([O-])=C(c2ccccc2F)c2cc(Cl)ccc2N1` (stereo unspecified) cannot be ordered by melting point: 147 to 148 °C for the first, 144 to 148 °C for the second.

First: COc1cc(C)nc(-n2cccn2)n1
Second: COc1cc(O)c2c(=O)c3ccccc3n(C)c2c1
The melting point of the first is lower: 52.5 to 53 °C for the first, 162 to 164 °C for the second.

First: O=C(O)CN1CCC(OC(c2ccc(F)cc2)c2ccc(F)cc2)CC1
Second: CCCCCCCNC(=O)Nc1ccc(N(C)C)cc1C(=O)NCC1CCN(C(c2ccc(Cl)cc2)c2ccc(Cl)cc2)CC1
The melting point of the first is lower: 126 to 128 °C for the first, 216 °C for the second.

First: CCOC(=O)C(=CNc1ccc(F)c(Cl)c1)C(=O)OCC
Second: Cc1ccc(CNC(=S)NCCO)c(C)c1
The melting point of the first is lower: 71.5 to 72.5 °C for the first, 101 to 103 °C for the second.

Compared with `CCOCCn1cc2c(C3C(=O)Nc4ccc(Br)cc43)nc(NCC(C)O)nc2n1` (stereo unspecified), `CN(c1ccc(Br)cc1)c1nc(=O)c2cccnc2s1` is lower in melting point: 298 to 300 °C for the first, 221 to 222 °C for the second.

First: Cn1nnnc1-c1cn(C)c2cc(N3CCCCC3)ccc2c1=O
Second: O=C(CCN1CCCC1)Nc1ccc2[nH]c3ccc(NC(=O)CCN4CCCC4)cc3c(=O)c2c1
The melting point of the first is lower: 180 to 183 °C for the first, > 320 °C for the second.

First: CC(C)(C)C(O)(Cn1cncn1)C1CC1c1ccc(Cl)cc1Cl (stereo unspecified)
Second: COc1ccc(CN2C(=O)C(C)(c3cc(NC(N)=O)ccc3Cl)c3cc(Cl)ccc32)c(OC)c1 (stereo unspecified)
The melting point of the first is lower: 98 to 101 °C for the first, 254 °C for the second.

Compared with `CCOC(=O)c1c(C)nc(N2CCN(C)CC2)c([N+](=O)[O-])c1Cl`, `N#Cc1cccnc1N1CCN(CC(=O)Nc2ccccc2)CC1` is higher in melting point: 59 to 61 °C for the first, 110 to 112 °C for the second.

First: CC(C)(C)OC(=O)NNC1CCN(C(=O)OC(C)(C)C)CC1
Second: CC(C)(C)c1nc(C[C@@H]2CC[C@](C)(NCC(=O)N3C[C@@H](F)C[C@H]3C#N)C2(C)C)no1
The melting point of the first is lower: 112 to 115 °C for the first, 152 to 154 °C for the second.

First: COc1ccc(CC#N)cc1S(=O)(=O)NC(C)(C)C
Second: CN(CCO)C(=O)Nc1ccc([N+](=O)[O-])c(C(F)(F)F)c1
The melting point of the first is lower: 146 to 147 °C for the first, 180 to 181 °C for the second.

First: CCCCCCCCCCCCCN(O)C(=O)N(C)C
Second: CCCCC(Cc1ccc(OCCNC(=O)c2ccc(-c3ccc(C(=O)OC)cc3)cc2)cc1)C(=O)OCC (stereo unspecified)
The melting point of the first is lower: 57 to 58 °C for the first, 93 to 95 °C for the second.

First: C#Cc1cccc(Nc2ncnc3c2ccn3CCOCCOC)c1
Second: O=C(Nc1ccc(-n2nc(C3CC3)cc2C2CC2)nc1)c1ccncc1F
The melting point of the first is higher: 240 to 241 °C for the first, 192 to 195 °C for the second.

First: O=C(O)c1ccccc1-c1ccc(C(=O)N2Cc3ccc(C(=O)NCc4cccnc4)n3Cc3ccccc32)cc1
Second: Cc1cccc(Cl)c1Nc1nc2ccc(-c3c(C)cccc3C)cc2n2cncc12
The melting point of the first is higher: 189 to 191 °C for the first, 140 to 150 °C for the second.

First: Cc1oncc1C(=O)c1ccc(Cl)cc1
Second: CON1CCC(CC2NC(=O)C(c3cc(C)ccc3C)=C2O)CC1 (stereo unspecified)
The melting point of the first is lower: 65 to 66 °C for the first, 116 to 119 °C for the second.

Compared with `CSC(N)=Nc1nncs1`, `C[C@@H]1OC(=O)C2=C[C@H]3CCCC[C@@H]3[C@@H](O)[C@H]21` is higher in melting point: 116 to 117 °C for the first, 191 to 193 °C for the second.

With `O=c1[nH][nH]c(=O)n1-c1c(F)c(F)c(F)c(F)c1F` the melting point was 180 to 182 °C.
